Test results: article PMC4413193, “3-[4-(1H-Indol-3-yl)-1,3-thiazol-2-yl]-1H-pyrrolo[2,3-b]pyridines, Nortopsentin Analogues with Antiproliferative Activity” (Marine Drugs, 2015)

Legend:
[1] = test system: leukemia cancer subpanel cell lines; test: NCI-60 screen, leukemia subpanel summary; format: cell-based; settings: Homo sapiens; range over the leukemia subpanel; read-out: GI50 of all the leukemia subpanel cell lines (range)
Procedure: (§1) All the synthesized thiazoles 3a–k were evaluated by the National Cancer Institute (Bethesda MD) for cytotoxicity against the NCI-60 cell line panel using standard protocols. Initially, the selected derivatives 3c,d,g,h,j,k were tested at a single dose (10^−5 M) on the full panel of approximately 60 human tumor cell lines derived from 9 human cancer cell types, that have been grouped in disease sub-panels including leukemia, non-small-cell lung, colon, central nervous system (CNS), melanoma, ovarian, renal, prostate and breast cancers (data not shown). Compounds 3d and 3k were further selected for full evaluation at five concentration levels (10^−4–10^−8 M).
(§2) The antitumor activity of compounds 3d and 3k was given by three parameters for each cell line: GI50 (the molar concentration of the compound that inhibits 50% net cell growth), TGI (the molar concentration of the compound leading to total inhibition of net cell growth), and LC50 (the molar concentration of the compound that induces 50% net cell death). The average values of mean graph midpoint (MG_MID) were calculated for each of these parameters.

HT29 = test: NCI-60 in vitro tumor cell growth inhibition, HT29 (colon cancer); format: cell-based; settings: Homo sapiens, HT-29, five concentration levels
Procedure: as §1, §2

HOP-92 = test: NCI-60 in vitro tumor cell growth inhibition, HOP-92 (non-small cell lung cancer); format: cell-based; settings: Homo sapiens, five concentration levels
Procedure: as §1, §2

TK-10 = test: NCI-60 in vitro tumor cell growth inhibition, TK-10 (renal cancer); format: cell-based; settings: Homo sapiens, five concentration levels
Procedure: as §1, §2

HepG2 cells [2] = test: Cell cycle analysis by flow cytometry (PI staining); format: cell-based, human; settings: HepG2, 24 h treatment
Procedure: The distribution of HepG2 cells in the cell cycle phases after 24 h treatment with the two norptopsentin analogues, was assessed by flow cytometric analysis after staining of DNA with PI.
Cell cycle stage was analyzed by flow cytometry. Aliquots of 1 × 10^6 cells were harvested by centrifugation, washed with PBS and incubated in the dark in a PBS solution containing 20 μg/mL propidium iodide (PI) and 200 μg/mL RNase, for 30 min, at room temperature. Then samples were subjected to fluorescence-activated cell sorting (FACS) analysis by Epics XL™ flow cytometer using Expo32 software (Beckman Coulter, Fullerton, CA, USA). At least 1 × 10^4 cells were analyzed for each sample.

A549/ATCC = test: NCI-60 in vitro tumor cell growth inhibition, A549/ATCC (non-small cell lung cancer); format: cell-based; settings: Homo sapiens, five concentration levels
Procedure: as §1, §2

SK-MEL-28 = test: NCI-60 in vitro tumor cell growth inhibition, SK-MEL-28 (melanoma); format: cell-based; settings: Homo sapiens, five concentration levels
Procedure: as §1, §2

NCI-H226 = test: NCI-60 in vitro tumor cell growth inhibition, NCI-H226 (non-small cell lung cancer); format: cell-based; settings: Homo sapiens, five concentration levels
Procedure: as §1, §2

HCT-15 = test: NCI-60 in vitro tumor cell growth inhibition, HCT-15 (colon cancer); format: cell-based; settings: Homo sapiens, five concentration levels
Procedure: as §1, §2

HCC-2998 = test: NCI-60 in vitro tumor cell growth inhibition, HCC-2998 (colon cancer); format: cell-based; settings: Homo sapiens, five concentration levels
Procedure: as §1, §2

SF-295 = test: NCI-60 in vitro tumor cell growth inhibition, SF-295 (CNS cancer); format: cell-based; settings: Homo sapiens, five concentration levels
Procedure: as §1, §2

LOX IMVI = test: NCI-60 in vitro tumor cell growth inhibition, LOX IMVI (melanoma); format: cell-based; settings: Homo sapiens, five concentration levels
Procedure: as §1, §2

SNB-19 = test: NCI-60 in vitro tumor cell growth inhibition, SNB-19 (CNS cancer); format: cell-based; settings: Homo sapiens, five concentration levels
Procedure: as §1, §2

HepG2 cells [3] = test: Phosphatidylserine exposure, Annexin V-FITC/PI flow cytometry; format: cell-based, human; settings: HepG2, 24 h, at GI50 values
Procedure: Apoptosis induction by 3d and 3k in HepG2 cells was investigated by externalization of plasma membrane phosphatidylserine and changes of mitochondrial transmembrane potential.
The apoptosis-induced PS externalization to the cell surface was measured by flow cytometry by double staining with Annexin V-Fluorescein isothiocyanate (Annexin V-FITC)/propidium iodide (PI). Annexin V binding to phosphatidylserine is used to identify the earliest stage of apoptosis. […] HepG2 cells were seeded in triplicate in 24-wells culture plates at a density of 2.0 × 10^5 cells/cm^2. After an overnight incubation, cells were washed with fresh medium and incubated with the compounds in RPMI. After 24 h, cells were harvested by trypsinization and adjusted at 2.0 × 10^5 cells/mL with combining buffer. One hundred μL of cell suspended solution was added to a new tube, and incubated with 5 µL annexin V and 10 μL of a 20 μg/mL PI solution at room temperature in the dark for 15 min. Then at least 1.0 × 10^4 cells were immediately subjected to FACS analysis using appropriate 2-bidimensional gating method.

SR = test: NCI-60 in vitro tumor cell growth inhibition, SR (leukemia); format: cell-based; settings: Homo sapiens, five concentration levels 10^−4–10^−8 M
Procedure: as §1, §2

SNB-75 = test: NCI-60 in vitro tumor cell growth inhibition, SNB-75 (CNS cancer); format: cell-based; settings: Homo sapiens, five concentration levels
Procedure: as §1, §2

ACHN = test: NCI-60 in vitro tumor cell growth inhibition, ACHN (renal cancer); format: cell-based; settings: Homo sapiens, five concentration levels
Procedure: as §1, §2

HS 578T = test: NCI-60 in vitro tumor cell growth inhibition, HS 578T (breast cancer); format: cell-based; settings: Homo sapiens, five concentration levels
Procedure: as §1, §2

SW-620 = test: NCI-60 in vitro tumor cell growth inhibition, SW-620 (colon cancer); format: cell-based; settings: Homo sapiens, five concentration levels
Procedure: as §1, §2

MDA-MB-468 = test: NCI-60 in vitro tumor cell growth inhibition, MDA-MB-468 (breast cancer); format: cell-based; settings: Homo sapiens, five concentration levels
Procedure: as §1, §2

U251 = test: NCI-60 in vitro tumor cell growth inhibition, U251 (CNS cancer); format: cell-based; settings: Homo sapiens, U-251, five concentration levels
Procedure: as §1, §2

SMILES	GI50 [1] [nM]	GI50 (HT29) [nM]	GI50 (HOP-92) [nM]	GI50 (TK-10) [nM]	distribution of HepG2 cells in the cell cycle phases (HepG2 cells [2])	GI50 (A549/ATCC) [nM]	GI50 (SK-MEL-28) [nM]	GI50 (NCI-H226) [nM]	GI50 (HCT-15) [nM]	GI50 (HCC-2998) [nM]	GI50 (SF-295) [nM]	GI50 (LOX IMVI) [nM]	GI50 (SNB-19) [nM]	apoptosis induction, externalized phosphatidylserine (HepG2 cells [3])	GI50 (SR) [nM]	GI50 (SNB-75) [nM]	GI50 (ACHN) [nM]	GI50 (HS 578T) [nM]	GI50 (SW-620) [nM]	GI50 (MDA-MB-468) [nM]	other results
Cn1cc(-c2csc(-c3cn(C)c4ncccc34)n2)c2ccccc21 [Compound 3d, 1-Methyl-3-[4-(1-methyl-1H-indol-3-yl)-1,3-thiazol-2-yl]-1H-pyrrolo[2,3-b]pyridine]	60 to 670	250	350	600	significant dose-dependent decrease in the percentage of cells in the G0/G1 and S phases, accompanied by a concomitant percentage increase of cells in the G2/M phase, and appearance of a subG1-cell population	560	1200	740	170	1130	240	540	630	high percentage of cells in early apoptosis	60	160	720	590	220	280	GI50 (U251): 410 nM
Cn1cc(-c2nc(-c3c[nH]c4ccccc34)cs2)c2cccnc21 [Compound 3k, 3-[4-(1H-Indol-3-yl)-1,3-thiazol-2-yl]-1-methyl-1H-pyrrolo[2,3-b]pyridine]	120 to 660	190	310	990	significant dose-dependent decrease in the percentage of cells in the G0/G1 and S phases, accompanied by a concomitant percentage increase of cells in the G2/M phase, and appearance of a subG1-cell population	710	760	650	290	1180	310	510	640	high percentage of cells in early apoptosis	140	140	510	660	300	230	GI50 (U251): 430 nM
